Experimental findings from US7772177B2, “BIR domain binding compounds” (Aegera Therapeutics, Inc., priority 2005, dated 2010) are described below.

Holding throughout (assay type): binding
One assay deals with T1, GST-HIAP1(cIAP-2) BIR 3 (Homo sapiens, UniProt Q13489).
T1 construct: made in house; host or cells: E. coli DH5-alpha
As to the kind of experiment: Fluorescence polarization-based competition assay, cIAP-2 Bir3. Here is the method:
GST-HIAP1(cIAP-2) BIR 3: HIAP1 coding sequence from amino acids 236-349, cloned into PGex4T3 via BamH1 and XhoI. The plasmid was transformed into E. coli DH5α for use in protein expression and purification.
(§1) A fluorescent peptide probe, Fmoc-Ala-Val-Pro-Phe-Tyr(t-Bu)-Leu-Pro-Gly(t-Bu)-Gly-OH was prepared using standard Fmoc chemistry on 2-chlorotrityl chloride resin (Int. J. Pept. Prot. Res. 38:555-561, 1991). Cleavage from the resin was performed using 20% acetic acid in dichloromethane (DCM), which left the side chain still blocked. The C-terminal protected carboxylic acid was coupled to 4′-(aminomethyl)fluorescein (Molecular Probes, A-1351; Eugene, Oreg.) using excess diisopropylcarbodiimide (DIC) in dimethylformamide (DMF) at room temperature and was purified by silica gel chromatography (10% methanol in DCM). The N-terminal Fmoc protecting group was removed using piperidine (20%) in DMF, and purified by silica gel chromatography (20% methanol in DCM, 0.5% HOAc). Finally, the t-butyl side chain protective groups were removed using 95% trifluoroacetic acid containing 2.5% water and 2.5% triisopropyl silane. […] Compound #174 was also used as a fluorescent probe in this assay.
(§2) For all assays, the fluorescence and fluorescence-polarization was evaluated using a Tecan Polarion instrument with the excitation filter set at 485 nm and the emission filter set at 535 nm. For each assay, the concentration of the target protein was first establish by titration of the selected protein in order to produce a linear dose-response signal when incubated alone in the presence of the fluorescent probe. Upon establishing these conditions, the compounds potency (IC50) and selectivity, was assessed in the presence of a fix defined-amount of target protein and fluorescent probe and a 10 point serial dilution of the selected compounds. For each IC50 curve, the assays were run as followed: 25 ul/well of diluted compound in 50 mM MES buffer pH 6.5 were added into a black 96 well plate then 25 ul/well of bovine serum albumin (BSA) at 0.5 mg/ml in 50 mM MES pH 6.5. Auto-fluorescence for each compound was first assessed by performing a reading of the compound/BSA solution alone. Then 25 ul of the fluorescein probe diluted into 50 mM MES containing 0.05 mg/ml BSA were added and a reading to detect quenching of fluorescein signal done. Finally 25 ul/well of the target or control protein (GST-BIRs) diluted at the appropriate concentration in 50 mM MES containing 0.05 mg/ml BSA were added and the fluorescence polarization evaluated.
(§3) For each assay the relative polarization-fluorescence units were plotted against the final concentrations of compound and the IC50 calculated using the Grad pad prism software and/or Cambridge soft. The ki value were derived from the calculated IC50 value as described above and according to the equation described in Nikolovska-Coleska, Z. (2004) Anal Biochem 332, 261-273.
(§4) Compounds exemplified in Table 6 were tested and found to have IC50s in the following ranges: A: >10 μM; B: <10 μM; C: <1 μM using the fluorescence polarization assay, as shown in Table 5. Each of the IC50s was calculated from Graph Pad.
(In general: In fluorescence polarisation assays a small probe gives low polarisation when free and higher when bound to something large.)

For a further assay, the target named is T2, GST-XIAP BIR3RING (Homo sapiens, UniProt P98170).
T2 construct: made in house; host or cells: E. coli DH5-alpha
T2 sequence (P98170 246-497): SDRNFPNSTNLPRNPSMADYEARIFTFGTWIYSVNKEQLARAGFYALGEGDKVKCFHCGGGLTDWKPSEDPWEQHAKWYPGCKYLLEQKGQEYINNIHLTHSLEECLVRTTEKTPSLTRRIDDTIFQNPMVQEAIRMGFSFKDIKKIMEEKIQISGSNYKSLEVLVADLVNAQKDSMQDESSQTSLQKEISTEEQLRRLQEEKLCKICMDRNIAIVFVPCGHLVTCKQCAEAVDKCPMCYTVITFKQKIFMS
As to the kind of experiment: Fluorescence polarization-based competition assay, XIAP Bir3-RING. Here is the method:
GST-XIAP BIR3RING: XIAP coding sequence amino acids 246-497 cloned into PGEX2T1 via BamH1 and AVA I. The plasmid was transformed into E. coli DH5α for use in protein expression and purification.
as §1, §2, §3, §4

The target of the next assay is T3, GST-HIAP2 (cIAP-1) BIR 3 (Homo sapiens, UniProt Q13490).
T3 construct: made in house; host or cells: E. coli DH5-alpha
T3 sequence (Q13490 251-363): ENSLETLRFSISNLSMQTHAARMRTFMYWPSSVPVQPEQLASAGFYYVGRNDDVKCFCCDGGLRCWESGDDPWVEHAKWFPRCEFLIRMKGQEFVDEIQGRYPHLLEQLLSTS
As to the kind of experiment: Fluorescence polarization-based competition assay, cIAP-1 Bir3. Here is the method: GST-HIAP2 (cIAP-1) BIR 3: HIAP2 coding sequence from amino acids 251-363 cloned into PGex4T3 via BamH1 and XhoI. The plasmid was transformed into E. coli DH5α for use in protein expression and purification.
as §1, §2, §3, §4

T1 sequence (Q13489 236-349): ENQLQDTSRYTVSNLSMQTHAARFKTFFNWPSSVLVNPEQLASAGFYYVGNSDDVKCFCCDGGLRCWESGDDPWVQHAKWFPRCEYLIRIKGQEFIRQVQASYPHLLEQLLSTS

On to `CC(C)[C@H](NC(=O)[C@H](C)N)C(=O)N1CCC[C@H]1CSCCc1ccccc1` [Compound 66], for which the IC50 on GST-HIAP1(cIAP-2) BIR 3, on GST-XIAP BIR3RING and at GST-HIAP2 (cIAP-1) BIR 3 was less than 10000 nM each time.

For `CN[C@@H](C)C(=O)N[C@H](C(=O)N1CCC[C@H]1CN(CCc1ccccc1)C(=O)[C@@H](C)N)C(C)(C)C` [Compound 36], the IC50 at GST-HIAP1(cIAP-2) BIR 3 is less than 1000 nM; on GST-XIAP BIR3RING, less than 10000 nM; at GST-HIAP2 (cIAP-1) BIR 3, less than 1000 nM.

On to `CN[C@@H](C)C(=O)N[C@H](C(=O)N1CCC[C@H]1CN(CCc1ccccc1)C(=O)c1ccccc1)C(C)(C)C` [Compound 47], for which the IC50 at GST-HIAP1(cIAP-2) BIR 3, on GST-XIAP BIR3RING and at GST-HIAP2 (cIAP-1) BIR 3 was less than 1000 nM throughout.

For `CC(C)[C@H](NC(=O)[C@H](C)N)C(=O)N1CCC[C@H]1COCc1ccccc1` [Compound 63], the IC50 on GST-HIAP1(cIAP-2) BIR 3 is greater than 10000 nM; on GST-XIAP BIR3RING, less than 10000 nM; at GST-HIAP2 (cIAP-1) BIR 3, less than 10000 nM.

In the case of `C[C@H](N)C(=O)N[C@H](C(=O)N1CCC[C@H]1COCc1ccccc1)C(C)(C)C` [Compound 64], the IC50 at GST-HIAP1(cIAP-2) BIR 3, at GST-XIAP BIR3RING and at GST-HIAP2 (cIAP-1) BIR 3 was less than 10000 nM each time.

In the case of `CN[C@@H](C)C(=O)N[C@H](C(=O)N1CCC[C@H]1CN(CCc1ccccc1)C(=O)CNc1ccccc1)C(C)(C)C` [Compound 40], the IC50 on GST-HIAP1(cIAP-2) BIR 3, at GST-XIAP BIR3RING and at GST-HIAP2 (cIAP-1) BIR 3 was less than 1000 nM throughout.

For `C#CCOC[C@H](NC(=O)[C@@H](N)CO)C(=O)N1CCC[C@H]1CN(CCc1ccccc1)C(=O)C(F)(F)F` [Compound 61], the IC50 on GST-HIAP1(cIAP-2) BIR 3, on GST-XIAP BIR3RING and at GST-HIAP2 (cIAP-1) BIR 3 was less than 1000 nM each time.

With `CN[C@@H](C)C(=O)N[C@H](C(=O)N1CCC[C@H]1CN(CCc1ccccc1)C(=O)[C@H](N)Cc1ccncc1)C(C)(C)C` [Compound 56], the IC50 at GST-HIAP1(cIAP-2) BIR 3, at GST-XIAP BIR3RING and on GST-HIAP2 (cIAP-1) BIR 3 was less than 1000 nM in each case.

As for `CN[C@@H](C)C(=O)N[C@H](C(=O)N1CCC[C@H]1CN(CCc1ccccc1)C(=O)[C@@H]1CCCN1)C(C)(C)C` [Compound 51], the IC50 on GST-HIAP1(cIAP-2) BIR 3, on GST-XIAP BIR3RING and at GST-HIAP2 (cIAP-1) BIR 3 was less than 1000 nM each time.

Take `CN[C@@H](C)C(=O)N[C@H](C(=O)N1CCC[C@H]1CN(CCc1ccccc1)C(=O)[C@H]1CCCN1)C(C)(C)C` [Compound 50]: the IC50 on GST-HIAP1(cIAP-2) BIR 3, at GST-XIAP BIR3RING and at GST-HIAP2 (cIAP-1) BIR 3 was less than 1000 nM throughout.

For `CC(C)[C@H](NC(=O)[C@H](C)N)C(=O)N1CCC[C@H]1CS(=O)(=O)CCc1ccccc1` [Compound 67], the IC50 at GST-HIAP1(cIAP-2) BIR 3 is less than 10000 nM; at GST-XIAP BIR3RING, greater than 10000 nM; on GST-HIAP2 (cIAP-1) BIR 3 it was less than 10000 nM.

As for `CN[C@@H](C)C(=O)N[C@H](C(=O)N1CCC[C@H]1CN(CCc1ccccc1)S(=O)(=O)Cc1ccccc1)C(C)(C)C` [Compound 68], the half-maximal inhibitory concentration (IC50) at GST-HIAP1(cIAP-2) BIR 3, at GST-XIAP BIR3RING and on GST-HIAP2 (cIAP-1) BIR 3 was less than 1000 nM in each case.

`CN[C@@H](C)C(=O)N[C@H](C(=O)N1CCC[C@H]1CN(CCc1ccccc1)C(=O)CN(C)C)C(C)(C)C` [Compound 38]: the IC50 on GST-HIAP1(cIAP-2) BIR 3, on GST-XIAP BIR3RING and at GST-HIAP2 (cIAP-1) BIR 3 was less than 1000 nM in each case.

As for `CN[C@@H](C)C(=O)N[C@H](C(=O)N1CCC[C@H]1CN(CCc1ccccc1)C(=O)[C@H](N)Cc1ccc(OC)cc1)C(C)(C)C` [Compound 54], the IC50 on GST-HIAP1(cIAP-2) BIR 3, on GST-XIAP BIR3RING and at GST-HIAP2 (cIAP-1) BIR 3 was less than 1000 nM in each case.

On to `CC[C@H](N)C(=O)N(CCc1ccccc1)C[C@@H]1CCCN1C(=O)[C@@H](NC(=O)[C@H](C)NC)C(C)(C)C` [Compound 39], for which the IC50 on GST-HIAP1(cIAP-2) BIR 3, on GST-XIAP BIR3RING and at GST-HIAP2 (cIAP-1) BIR 3 was less than 1000 nM in each case.

As for `CN[C@@H](C)C(=O)N[C@H](C(=O)N1CCC[C@H]1CN(CCc1ccccc1)C(=O)[C@H](C)N)C(C)(C)C` [Compound 37], the IC50 at GST-HIAP1(cIAP-2) BIR 3, at GST-XIAP BIR3RING and on GST-HIAP2 (cIAP-1) BIR 3 was less than 1000 nM in each case.

With `CN[C@@H](C)C(=O)N[C@H](C(=O)N1CCC[C@H]1CN(C[C@@H](C)c1ccccc1)C(=O)OCc1ccccc1)C(C)(C)C` [Compound 59], the IC50 on GST-HIAP1(cIAP-2) BIR 3, on GST-XIAP BIR3RING and on GST-HIAP2 (cIAP-1) BIR 3 was less than 1000 nM in each case.

In the case of `CC(C)[C@H](NC(=O)[C@H](C)N)C(=O)N1CCC[C@H]1CN(CCCCOC(=O)c1ccccc1)CCc1ccccc1` [Compound 65], the IC50 at GST-HIAP1(cIAP-2) BIR 3, on GST-XIAP BIR3RING and on GST-HIAP2 (cIAP-1) BIR 3 was less than 1000 nM in each case.

`CN[C@@H](C)C(=O)N[C@H](C(=O)N1CCC[C@H]1CN(CCc1ccccc1)S(=O)(=O)c1ccccc1)C(C)(C)C` [Compound 69]: the IC50 at GST-HIAP1(cIAP-2) BIR 3, on GST-XIAP BIR3RING and at GST-HIAP2 (cIAP-1) BIR 3 was less than 1000 nM each time.

As to `CN[C@@H](C)C(=O)N[C@H](C(=O)N1CCC[C@H]1CN(CCc1ccccc1)C(=O)Cc1ccccc1)C(C)(C)C` [Compound 57], the half-maximal inhibitory concentration (IC50) on GST-HIAP1(cIAP-2) BIR 3, on GST-XIAP BIR3RING and on GST-HIAP2 (cIAP-1) BIR 3 was less than 1000 nM each time.

In the case of `CN[C@@H](C)C(=O)N[C@H](C(=O)N1CCC[C@H]1CN(CCc1ccccc1)C(=O)[C@H](N)Cc1cccnc1)C(C)(C)C` [Compound 55], the IC50 at GST-HIAP1(cIAP-2) BIR 3, on GST-XIAP BIR3RING and at GST-HIAP2 (cIAP-1) BIR 3 was less than 1000 nM in each case.

On to `CC[C@@H](N)C(=O)N(CCc1ccccc1)C[C@@H]1CCCN1C(=O)[C@@H](NC(=O)[C@H](C)NC)C(C)(C)C` [Compound 46], for which the IC50 on GST-HIAP1(cIAP-2) BIR 3, at GST-XIAP BIR3RING and on GST-HIAP2 (cIAP-1) BIR 3 was less than 1000 nM in each case.

In the case of `CN[C@@H](C)C(=O)N[C@H](C(=O)N1CCC[C@H]1CN(CCc1ccccc1)C(=O)CNC(C)=O)C(C)(C)C` [Compound 43], the IC50 on GST-HIAP1(cIAP-2) BIR 3, on GST-XIAP BIR3RING and at GST-HIAP2 (cIAP-1) BIR 3 was less than 1000 nM in each case.

For `CN[C@@H](C)C(=O)N[C@@H](CCCN)C(=O)N1CCC[C@H]1CN(CCc1ccccc1)C(=O)CCc1ccccc1` [Compound 49], the IC50 on GST-HIAP1(cIAP-2) BIR 3, on GST-XIAP BIR3RING and at GST-HIAP2 (cIAP-1) BIR 3 was less than 1000 nM throughout.

Consider `CN[C@@H](C)C(=O)N[C@H](C(=O)N1CCC[C@H]1CN(CCc1ccccc1)C(=O)CCCN)C(C)(C)C` [Compound 41], for which the IC50 is less than 1000 nM at GST-HIAP1(cIAP-2) BIR 3, less than 10000 nM on GST-XIAP BIR3RING and less than 1000 nM at GST-HIAP2 (cIAP-1) BIR 3.

Turning to `CN[C@@H](C)C(=O)N[C@H](C(=O)N1CCC[C@H]1CN(CCc1ccccc1)C(=O)[C@H](N)CCc1ccccc1)C(C)(C)C` [Compound 58], the IC50 was less than 1000 nM at GST-HIAP1(cIAP-2) BIR 3, less than 10000 nM at GST-XIAP BIR3RING and less than 1000 nM at GST-HIAP2 (cIAP-1) BIR 3.

For the compound `CN[C@@H](C)C(=O)N[C@H](C(=O)N1CCC[C@H]1CN(C[C@H](C)c1ccccc1)C(=O)OCc1ccccc1)C(C)(C)C` [Compound 60], the IC50 on GST-HIAP1(cIAP-2) BIR 3 was less than 10000 nM; on GST-XIAP BIR3RING it was less than 1000 nM; at GST-HIAP2 (cIAP-1) BIR 3, less than 1000 nM.

The term IC50 denotes the midpoint of a concentration-inhibition curve.
